From patent US20210214758A1, “METHODS AND TOOLS FOR DETERMINING CLONAL RELATEDNESS AND PREDICTING CLONAL TRAITS” (priority 2018, published 2021)

Assays:
[1] = test system: Klebsiella isolates; conditions: known; cited from earlier work
[2] = test system: Klebsiella isolates; test: Antibiotic susceptibility of Klebsiella clinical isolates per 7-SNP clonotype (Lookup Table 1; disk diffusion); assay type: cell-based, Klebsiella spp.

Question: For `CC1(C)S[C@@H]2[C@H](NC(=O)[C@H](N)c3ccccc3)C(=O)N2[C@H]1C(=O)O` [AMP, ampicillin], which “resistance or sensitivity of almost all Klebsiella isolates” value [1] is on record?
Answer: resistant

Question: What about the “susceptibility, %” value ([2]; CT 000) of the same molecule?
Answer: 34%

Question: And the “susceptibility, %” value ([2]; CT 001)?
Answer: 0%

Question: What about the “susceptibility, %” value ([2]; CT 010) of the same molecule?
Answer: 0%

Question: And the “susceptibility, %” value ([2]; CT 011)?
Answer: 0%

Question: And the “susceptibility, %” value ([2]; CT 031)?
Answer: 0%

Question: And the “susceptibility, %” value ([2]; CT 040)?
Answer: 25%

Question: What about the “susceptibility, %” value ([2]; CT 050) of the same molecule?
Answer: 0%

Question: What about the “susceptibility, %” value ([2]; CT 051) of the same molecule?
Answer: 0%

Question: And the “susceptibility, %” value ([2]; CT 071)?
Answer: 0%

Question: And the “susceptibility, %” value ([2]; CT 100)?
Answer: 0%

Question: And the “susceptibility, %” value ([2]; CT 110)?
Answer: 0%

Question: What about the “susceptibility, %” value ([2]; CT 111) of the same molecule?
Answer: 0%

Question: And the “susceptibility, %” value ([2]; CT 130)?
Answer: 2%

Question: What about the “susceptibility, %” value ([2]; CT 131) of the same molecule?
Answer: 0%

Question: And the “susceptibility, %” value ([2]; CT 141)?
Answer: 0%

Question: And the “susceptibility, %” value ([2]; CT 150)?
Answer: 0%

Question: What about the “susceptibility, %” value ([2]; CT 151) of the same molecule?
Answer: 2%

Question: What about the “susceptibility, %” value ([2]; CT 160) of the same molecule?
Answer: 0%

Question: What about the “susceptibility, %” value ([2]; CT 170) of the same molecule?
Answer: 4%

Question: What about the “susceptibility, %” value ([2]; CT 171) of the same molecule?
Answer: 0%

Question: What about the “susceptibility, %” value ([2]; CT 200) of the same molecule?
Answer: 9%

Question: And the “susceptibility, %” value ([2]; CT 201)?
Answer: 6%

Question: And the “susceptibility, %” value ([2]; CT 210)?
Answer: 0%

Question: And the “susceptibility, %” value ([2]; CT 211)?
Answer: 2%

Question: What about the “susceptibility, %” value ([2]; CT 230) of the same molecule?
Answer: 0%

Question: What about the “susceptibility, %” value ([2]; CT 231) of the same molecule?
Answer: 0%

Question: What about the “susceptibility, %” value ([2]; CT 240) of the same molecule?
Answer: 0%

Question: And the “susceptibility, %” value ([2]; CT 241)?
Answer: 0%

Question: What about the “susceptibility, %” value ([2]; CT 250) of the same molecule?
Answer: 0%

Question: And the “susceptibility, %” value ([2]; CT 251)?
Answer: 0%

Question: What about the “susceptibility, %” value ([2]; CT 271) of the same molecule?
Answer: 0%

Question: What about the “susceptibility, %” value ([2]; CT 300) of the same molecule?
Answer: 0%

Question: And the “susceptibility, %” value ([2]; CT 301)?
Answer: 0%

Question: What about the “susceptibility, %” value ([2]; CT 310) of the same molecule?
Answer: 0%

Question: And the “susceptibility, %” value ([2]; CT 311)?
Answer: 0%

Question: What about the “susceptibility, %” value ([2]; CT 330) of the same molecule?
Answer: 0%

Question: And the “susceptibility, %” value ([2]; CT 331)?
Answer: 1%

Question: What about the “susceptibility, %” value ([2]; CT 350) of the same molecule?
Answer: 0%

Question: And the “susceptibility, %” value ([2]; CT 351)?
Answer: 0%

Question: And the “susceptibility, %” value ([2]; CT 370)?
Answer: 0%

Question: What about the “susceptibility, %” value ([2]; CT 371) of the same molecule?
Answer: 0%

Question: And the “susceptibility, %” value ([2]; CT 411)?
Answer: 0%

Question: And the “susceptibility, %” value ([2]; CT 450)?
Answer: 0%

Question: And the “susceptibility, %” value ([2]; CT 451)?
Answer: 0%

Question: And the “susceptibility, %” value ([2]; CT 510)?
Answer: 0%

Question: What about the “susceptibility, %” value ([2]; CT 511) of the same molecule?
Answer: 0%

Question: What about the “susceptibility, %” value ([2]; CT 530) of the same molecule?
Answer: 0%

Question: What about the “susceptibility, %” value ([2]; CT 531) of the same molecule?
Answer: 0%

Question: And the “susceptibility, %” value ([2]; CT 550)?
Answer: 0%

Question: And the “susceptibility, %” value ([2]; CT 551)?
Answer: 0%

Question: What about the “susceptibility, %” value ([2]; CT 570) of the same molecule?
Answer: 0%

Question: And the “susceptibility, %” value ([2]; CT 571)?
Answer: 0%

Question: And the “susceptibility, %” value ([2]; CT 611)?
Answer: 0%

Question: And the “susceptibility, %” value ([2]; CT 630)?
Answer: 0%

Question: What about the “susceptibility, %” value ([2]; CT 650) of the same molecule?
Answer: 0%

Question: What about the “susceptibility, %” value ([2]; CT 651) of the same molecule?
Answer: 4%

Question: And the “susceptibility, %” value ([2]; CT 670)?
Answer: 0%

Question: And the “susceptibility, %” value ([2]; CT 710)?
Answer: 0%

Question: What about the “susceptibility, %” value ([2]; CT 730) of the same molecule?
Answer: 0%

Question: What about the “susceptibility, %” value ([2]; CT 731) of the same molecule?
Answer: 0%

Question: What about the “susceptibility, %” value ([2]; CT 750) of the same molecule?
Answer: 0%

Question: What about the “susceptibility, %” value ([2]; CT 751) of the same molecule?
Answer: 17%

Question: And the “susceptibility, %” value ([2]; CT 771)?
Answer: 0%

Question: What about the “susceptibility, %” value ([2]; CT Any Klebsiella spp.) of the same molecule?
Answer: 6%
